Experimental data: ChEMBL document CHEMBL1201862, “PubChem BioAssay data set” (2004)
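Cells were grown in 96-well plates and exposed to each compound for 48 hours at five concentrations; endpoints were interpolated linearly between bracketing concentrations, or set to the highest concentration if not reached. GI50 marks 50% less growth.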 Activity calls are given as the source filed them. No stated cut-off is given here; in the data, active = GI50 up to about 1.1 µM and inactive = higher.

Tests used:
Assay in all cases: NCI anticancer screen, dose series, 48 h
[1] = tested on: UO-31
[2] = tested on: A498
[3] = tested on: OVCAR-5
[4] = tested on: HOP-92
[5] = tested on: ACHN
[6] = tested on: NCI-H460
[7] = tested on: NCI-H23
[8] = tested on: MOLT-4
[9] = tested on: Hs-578T
[10] = tested on: LOX IMVI
[11] = tested on: MDA-MB-435
[12] = tested on: NCI-H226
[13] = tested on: SF-295
[14] = tested on: SK-OV-3
[15] = tested on: OVCAR-3
[16] = tested on: HCT-15
[17] = tested on: SNB-75
[18] = tested on: SW-620
[19] = tested on: DU-145
[20] = tested on: M14
[21] = tested on: 786-0
[22] = tested on: UACC-62
[23] = tested on: PC-3
[24] = tested on: EKVX
[25] = tested on: COLO 205
[26] = tested on: A549
[27] = tested on: SR
[28] = tested on: RPMI-8226
[29] = tested on: HOP-62
[30] = tested on: TK-10
[31] = tested on: SF-268
[32] = tested on: SNB-19
[33] = tested on: SN12C
[34] = tested on: OVCAR-4
[35] = tested on: UACC-257
[36] = tested on: HCT-116
[37] = tested on: HCC 2998
[38] = tested on: K562
[39] = tested on: SF-539
[40] = tested on: HT-29
[41] = tested on: HL-60
[42] = tested on: CAKI-1
[43] = tested on: U-251
[44] = tested on: OVCAR-8
[45] = tested on: KM12
[46] = tested on: RXF 393
[47] = tested on: MCF7
[48] = tested on: NCI-H522
[49] = tested on: T47D
[50] = tested on: CCRF-CEM
[51] = tested on: Malme-3M
[52] = tested on: BT-549
[53] = tested on: MDA-MB-231
[54] = tested on: SK-MEL-2
[55] = tested on: SK-MEL-28
[56] = tested on: MDA-N
[57] = tested on: IGROV-1
[58] = tested on: NCI/ADR-RES
[59] = tested on: SK-MEL-5

## O=C1c2ccccc2/N=C(/c2cc3c(cc2Cl)Sc2nccn2S3(=O)=O)OS(=O)(=O)N1c1ccccc1
[1]
  GI50: 26 µM (inactive)
[2]
  GI50: > 100 µM (inactive)
[3]
  GI50: 19.4 µM (inactive)
[4]
  GI50: 80.5 µM (inactive)
[5]
  GI50: 25.8 µM (inactive)
[6]
  GI50: 29.8 µM (inactive)
[7]
  GI50: 22.4 µM (inactive)
[8]
  GI50: 9.33 µM (inactive)
[9]
  GI50: 46.8 µM (inactive)
[10]
  GI50: 8.09 µM (inactive)
[11]
  GI50: 21.3 µM (inactive)
[12]
  GI50: 39.4 µM (inactive)
[13]
  GI50: 16.9 µM (inactive)
[14]
  GI50: 36.3 µM (inactive)
[15]
  GI50: 37 µM (inactive)
[16]
  GI50: 20.2 µM
[17]
  GI50: 7.4 µM (inactive)
[18]
  GI50: 24.9 µM (inactive)
[19]
  GI50: 37.4 µM (inactive)
[20]
  GI50: 16.9 µM (inactive)
[21]
  GI50: 38.4 µM (inactive)
[22]
  GI50: 20.5 µM (inactive)
[23]
  GI50: 44.4 µM (inactive)
[24]
  GI50: 30 µM (inactive)
[25]
  GI50: 19.9 µM (inactive)
[26]
  GI50: 30.3 µM (inactive)
[27]
  GI50: 10.8 µM (inactive)
[28]
  GI50: 18.6 µM (inactive)
[29]
  GI50: 21.7 µM (inactive)
[30]
  GI50: 24.4 µM (inactive)
[31]
  GI50: 37.3 µM (inactive)
[32]
  GI50: 33.7 µM (inactive)
[33]
  GI50: 32.1 µM (inactive)
[34]
  GI50: 21.1 µM (inactive)
[35]
  GI50: 64.7 µM (inactive)
[36]
  GI50: 15.5 µM (inactive)
[37]
  GI50: 8.36 µM (inactive)
[38]
  GI50: 35.2 µM (inactive)
[39]
  GI50: 36.7 µM (inactive)
[40]
  GI50: 23.3 µM (inactive)
[41]
  GI50: 31.3 µM (inactive)
[42]
  GI50: 35.7 µM (inactive)
[43]
  GI50: 29.2 µM (inactive)
[44]
  GI50: 17.4 µM (inactive)
[45]
  GI50: 23 µM (inactive)
[46]
  GI50: 20.8 µM (inactive)
[47]
  GI50: 24.6 µM (inactive)
[48]
  GI50: 5.31 µM (inactive)
[49]
  GI50: > 100 µM (inactive)
[50]
  GI50: 4.65 µM (inactive)
[51]
  GI50: 73.8 µM (inactive)
[52]
  GI50: 17.8 µM (inactive)
[53]
  GI50: 22.7 µM (inactive)

## O=C(NCCOC(=O)OCCNC(=O)NC1CCCCC1)NC1CCCCC1
[1]
  GI50: 71.3 µM (inactive)
[2]
  GI50: > 100 µM (inactive)
[3]
  GI50: > 100 µM (inactive)
[4]
  GI50: 27.1 µM (inactive)
[54]
  GI50: > 100 µM (inactive)
[5]
  GI50: > 100 µM (inactive)
[6]
  GI50: > 100 µM (inactive)
[7]
  GI50: 80.2 µM (inactive)
[8]
  GI50: > 100 µM (inactive)
[9]
  GI50: > 100 µM (inactive)
[10]
  GI50: > 100 µM (inactive)
[11]
  GI50: > 100 µM (inactive)
[12]
  GI50: > 100 µM (inactive)
[13]
  GI50: > 100 µM (inactive)
[14]
  GI50: 92.5 µM (inactive)
[15]
  GI50: > 100 µM (inactive)
[16]
  GI50: > 100 µM
[17]
  GI50: 0.26 µM (active)
[55]
  GI50: > 100 µM (inactive)
[18]
  GI50: > 100 µM (inactive)
[19]
  GI50: > 100 µM (inactive)
[20]
  GI50: > 100 µM (inactive)
[56]
  GI50: > 100 µM (inactive)
[21]
  GI50: > 100 µM (inactive)
[22]
  GI50: > 100 µM (inactive)
[23]
  GI50: > 100 µM (inactive)
[24]
  GI50: > 100 µM (inactive)
[25]
  GI50: > 100 µM (inactive)
[26]
  GI50: > 100 µM (inactive)
[27]
  GI50: > 100 µM (inactive)
[28]
  GI50: > 100 µM (inactive)
[29]
  GI50: 35.6 µM (inactive)
[30]
  GI50: > 100 µM (inactive)
[31]
  GI50: > 100 µM (inactive)
[32]
  GI50: > 100 µM (inactive)
[33]
  GI50: > 100 µM (inactive)
[34]
  GI50: 91.6 µM (inactive)
[35]
  GI50: > 100 µM (inactive)
[36]
  GI50: > 100 µM (inactive)
[37]
  GI50: > 100 µM (inactive)
[38]
  GI50: > 100 µM (inactive)
[57]
  GI50: > 100 µM (inactive)
[39]
  GI50: 44.3 µM (inactive)
[40]
  GI50: > 100 µM (inactive)
[41]
  GI50: > 100 µM (inactive)
[42]
  GI50: > 100 µM (inactive)
[43]
  GI50: > 100 µM (inactive)
[44]
  GI50: > 100 µM (inactive)
[58]
  GI50: > 100 µM (inactive)
[45]
  GI50: > 100 µM (inactive)
[46]
  GI50: 72.6 µM (inactive)
[47]
  GI50: 0.834 µM (active)
[48]
  GI50: > 100 µM (inactive)
[49]
  GI50: > 100 µM (inactive)
[50]
  GI50: > 100 µM (inactive)
[51]
  GI50: > 100 µM (inactive)
[59]
  GI50: > 100 µM (inactive)
[53]
  GI50: 15.8 µM (inactive)

## C=C1CCCCCCCCC/C=C/1SCCCSC
[1]
  GI50: > 100 µM (inactive)
[2]
  GI50: > 100 µM (inactive)
[3]
  GI50: > 100 µM (inactive)
[4]
  GI50: > 100 µM (inactive)
[54]
  GI50: > 100 µM (inactive)
[5]
  GI50: > 100 µM (inactive)
[6]
  GI50: > 100 µM (inactive)
[7]
  GI50: > 100 µM (inactive)
[8]
  GI50: > 100 µM (inactive)
[9]
  GI50: > 100 µM (inactive)
[10]
  GI50: > 100 µM (inactive)
[11]
  GI50: > 100 µM (inactive)
[12]
  GI50: > 100 µM (inactive)
[13]
  GI50: > 100 µM (inactive)
[14]
  GI50: > 100 µM (inactive)
[15]
  GI50: > 100 µM (inactive)
[16]
  GI50: > 100 µM
[55]
  GI50: > 100 µM (inactive)
[18]
  GI50: > 100 µM (inactive)
[19]
  GI50: > 100 µM (inactive)
[20]
  GI50: > 100 µM (inactive)
[56]
  GI50: > 100 µM (inactive)
[21]
  GI50: > 100 µM (inactive)
[22]
  GI50: > 100 µM (inactive)
[23]
  GI50: > 100 µM (inactive)
[24]
  GI50: > 100 µM (inactive)
[25]
  GI50: > 100 µM (inactive)
[26]
  GI50: > 100 µM (inactive)
[27]
  GI50: > 100 µM (inactive)
[28]
  GI50: > 100 µM (inactive)
[29]
  GI50: > 100 µM (inactive)
[30]
  GI50: > 100 µM (inactive)
[31]
  GI50: > 100 µM (inactive)
[32]
  GI50: > 100 µM (inactive)
[33]
  GI50: > 100 µM (inactive)
[34]
  GI50: > 100 µM (inactive)
[35]
  GI50: > 100 µM (inactive)
[36]
  GI50: > 100 µM (inactive)
[37]
  GI50: > 100 µM (inactive)
[38]
  GI50: > 100 µM (inactive)
[57]
  GI50: > 100 µM (inactive)
[39]
  GI50: > 100 µM (inactive)
[40]
  GI50: > 100 µM (inactive)
[41]
  GI50: > 100 µM (inactive)
[42]
  GI50: > 100 µM (inactive)
[43]
  GI50: > 100 µM (inactive)
[44]
  GI50: > 100 µM (inactive)
[58]
  GI50: > 100 µM (inactive)
[45]
  GI50: > 100 µM (inactive)
[46]
  GI50: > 100 µM (inactive)
[47]
  GI50: > 100 µM (inactive)
[48]
  GI50: > 100 µM (inactive)
[49]
  GI50: > 100 µM (inactive)
[51]
  GI50: > 100 µM (inactive)
[59]
  GI50: > 100 µM (inactive)
[53]
  GI50: > 100 µM (inactive)
